Experimental data as given in US20240294595A1, “GLYCOPEPTIDES AND USES THEREOF” (Arizona Board of Regents on Behalf of the University of …, priority 2013, published 2024).
“Also recorded” adds a separate entry of the source.

Experiments:
[1] = biological target: T1, VPAC1 (Homo sapiens, UniProt P32241); test: VPAC1 agonist data (Table 2); assay type: cell-based
T1 sequence (P32241 31-457): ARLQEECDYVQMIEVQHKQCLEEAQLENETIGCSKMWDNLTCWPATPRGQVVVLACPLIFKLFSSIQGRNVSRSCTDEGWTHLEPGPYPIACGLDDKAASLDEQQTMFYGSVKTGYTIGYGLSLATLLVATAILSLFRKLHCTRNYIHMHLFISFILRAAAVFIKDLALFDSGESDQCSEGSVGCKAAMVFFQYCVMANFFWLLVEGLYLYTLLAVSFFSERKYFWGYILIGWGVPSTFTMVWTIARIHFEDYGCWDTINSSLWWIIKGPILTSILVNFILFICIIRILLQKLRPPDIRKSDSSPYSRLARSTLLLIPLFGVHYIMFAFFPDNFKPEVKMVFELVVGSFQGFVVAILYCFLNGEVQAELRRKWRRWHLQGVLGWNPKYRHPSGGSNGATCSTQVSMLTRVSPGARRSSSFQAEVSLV

[2] = test system: traumatic brain injury (TBI); test: mouse model of diffuse TBI (midline fluid percussion injury); assay type: in vivo
Protocol: Lead compound 2LS80Mel was evaluated for its neuroprotective potential in vivo utilizing a mouse model of traumatic brain injury (TBI). Mice were pretreated with either a single dose of 2LS80Mel (10 mg/kg i.p.) or sterile saline 30 min prior to being subjected to a midline fluid percussion injury. The mice were then evaluated for sleep-wake behavior (FIGS. 8A-C), motor skills and cognition, (FIGS. 8D-F), the presence of inflammatory markers, (FIGS. 8G-L), and microglial morphology (FIGS. 8M-O).

[3] = biological target: T2, VPAC2 (Homo sapiens, UniProt P41587); test: VPAC2 agonist data (Table 2); assay type: cell-based
T2 sequence (P41587 24-438): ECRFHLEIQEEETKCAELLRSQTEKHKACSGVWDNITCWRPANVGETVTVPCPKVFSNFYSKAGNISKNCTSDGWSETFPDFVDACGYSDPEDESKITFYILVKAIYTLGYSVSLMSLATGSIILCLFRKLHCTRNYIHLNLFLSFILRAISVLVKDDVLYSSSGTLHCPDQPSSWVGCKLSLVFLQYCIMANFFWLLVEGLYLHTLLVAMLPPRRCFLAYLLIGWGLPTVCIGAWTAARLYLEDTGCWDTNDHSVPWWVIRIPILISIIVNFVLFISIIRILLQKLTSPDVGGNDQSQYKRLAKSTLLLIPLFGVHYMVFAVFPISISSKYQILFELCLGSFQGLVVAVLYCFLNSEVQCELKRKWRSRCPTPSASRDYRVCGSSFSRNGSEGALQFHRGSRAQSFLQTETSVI

[4] = biological target: T3, PAC1 (Homo sapiens, UniProt P41586); test: PAC1 agonist data (Table 2); assay type: cell-based; design: host or cells: CHO (clonal line PAC1-CHO)
T3 sequence (P41586 21-468): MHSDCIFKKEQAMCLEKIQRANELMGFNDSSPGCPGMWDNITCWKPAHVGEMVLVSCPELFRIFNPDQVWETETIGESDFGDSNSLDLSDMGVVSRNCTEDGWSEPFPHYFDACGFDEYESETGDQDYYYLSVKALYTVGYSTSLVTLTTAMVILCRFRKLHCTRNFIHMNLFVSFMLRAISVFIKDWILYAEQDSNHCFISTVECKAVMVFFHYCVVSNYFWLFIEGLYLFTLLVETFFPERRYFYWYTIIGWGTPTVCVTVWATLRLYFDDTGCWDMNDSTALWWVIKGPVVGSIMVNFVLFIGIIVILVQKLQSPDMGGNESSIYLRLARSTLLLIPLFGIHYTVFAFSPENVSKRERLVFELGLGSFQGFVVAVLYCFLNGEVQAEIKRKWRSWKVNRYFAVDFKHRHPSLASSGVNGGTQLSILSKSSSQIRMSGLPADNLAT
Protocol: A custom DNA clone of the human PAC1 gene with 3 hemagglutinin (HA) tags inserted 3′ to the signal peptide sequence (to avoid proteolytic loss) was obtained from Genecopoeia (Rockville, MD). The construct was electroporated into Chinese Hamster Ovary (CHO) cells, and selected for with 500 μg/mL of G418. The resulting population was screened for high expressing clones, and one such clone selected for further analysis. […] This cell line was used for all molecular pharmacology experiments. The cells were maintained in DMEM/F12 with 10% heat-inactivated FBS, 1× penicillin/streptomycin, and 500 μg/mL G418, at 37° C. and 5% CO2.
All molecular pharmacology experiments were carried out using a FLIPR Tetra from Molecular Devices (Sunnyvale, CA), set to image calcium flux using the manufacturer's recommended settings and protocols. The day before an experiment, the PAC1-CHO cells were split into 384 well black walled, clear bottom microplates, 10,000 cells per well. The cells were recovered overnight in growth medium (as above). The next day, the growth medium was replaced with Calcium 6 dye (Molecular Devices) using the manufacturer recommended buffer with 2.5 mM probenecid. The cells were incubated for 2 hours in the culture incubator, and removed during the last 15 minutes to allow equilibration to room temperature. Compound as indicated below was added to the cells using a 384 tip block, with real time monitoring before, during, and 15 minutes after compound addition. The resulting calcium flux was recorded, and the maximum-minimum response over the entire observation time calculated and reported as the mean±SEM (4 wells per point).
For agonist mode experiments, compound was added in an 11 point concentration curve, with a vehicle control (buffer). […] The response was analyzed using a 3 variable non-linear curve fit, and the EC50 (nM) and EMax (%) calculated and reported (Prism, GraphPad, La Jolla, CA).

[5] = stability in mouse serum at 37° C. (FI-MSn); assay type: in vitro ADME; settings: for degradation in mouse serum: mouse serum at 37° C.
Source text: Chemical stability of the glycopeptides in vivo plays an important role in the deliverability of the drugs to the site(s) of action within the brain. It is also important to know what the chemical or metabolic instabilities are in order to inform the drug design process. […] Data were fitted using a single exponential decay model (R^2>0.71, in all cases).
The overall process was as follows: Flow-injection tandem mass spectrometry (FI-MS^n) was used to observe the degradation of the peptides and glycopeptides with a Thermo LCQ with electrospray ionization (ESI). The technique involved injection of a sample bolus of material in mouse serum via a six port valve with fluid flow delivered via a syringe pump, and subsequent electrospray ionization (ESI) followed by mass spectral analysis. Samples were diluted to a concentration of ˜5 μM of each PACAP analogue, and were incubated at 37° C. for times varying from 1 to 60 minutes. After samples had been incubated for the prescribed amount of time they were prepared for mass spectrometry analysis by withdrawing 10 microliters of solution and spiking with 1 microliter of a 10 μM solution of peptide internal standard (angiotensin II) in 50% acetic acid and subjecting them to a standard C18 zip tip desalting. These solutions, once eluted from the zip tip were diluted to 100 μL in 50:50 acetonitrile/water with 0.1% formic acid. Tandem mass spectrometry analysis (MS^3) was conducted to yield specific, quantitative signals proportional to the amount of PACAP analogue at each time point. This technique was also used with microdiasylate samples from a mouse after i.p. administration of PACAP1-27-S-G.

[6] = 10 mg/kg i.p. 30 min prior to TBI

In the case of `CC[C@H](C)[C@H](NC(=O)CNC(=O)[C@H](CC(=O)O)NC(=O)[C@H](CO)NC(=O)[C@@H](N)Cc1c[nH]cn1)C(=O)N[C@@H](Cc1ccccc1)C(=O)N[C@H](C(=O)N[C@@H](CC(=O)O)C(=O)N[C@@H](CO)C(=O)N[C@@H](Cc1ccc(O)cc1)C(=O)N[C@@H](CO)C(=O)N[C@@H](CCCNC(=N)N)C(=O)N[C@@H](Cc1ccc(O)cc1)C(=O)N[C@@H](CCCNC(=N)N)C(=O)N[C@@H](CCCCN)C(=O)N[C@@H](CCC(N)=O)C(=O)N[C@@H](CC(C)C)C(=O)N[C@@H](C)C(=O)N[C@H](C(=O)N[C@@H](CCCCN)C(=O)N[C@@H](CCCCN)C(=O)N[C@@H](Cc1ccc(O)cc1)C(=O)N[C@@H](CC(C)C)C(=O)N[C@@H](C)C(=O)N[C@@H](C)C(=O)N[C@H](C(=O)N[C@@H](CC(C)C)C(=O)N[C@@H](CO[C@@H]1O[C@H](CO[C@H]2O[C@H](CO)[C@H](O)[C@H](O)[C@H]2O)[C@@H](O)[C@H](O)[C@H]1O)C(N)=O)C(C)C)C(C)C)[C@@H](C)O` [Compound 2LS80Mel], the EC50 [1] is reported as 0.55 nM, the Emax [1] is reported as 102% and the “cumulative minutes slept in the first 6 h post-injury” value [2, 6] is reported as “slept comparable minutes to uninjured sham animals”. The “sleep in the first dark period” value [2, 6] was “prevented this injury-induced increase in sleep”, the “CD11b+Ly6Chigh and CD11b+CD115+Ly6Chigh monocyte populations” value ([2]; 10 mg/kg i.p. prior to TBI) was “not seen; also recorded: prevented increases in peripheral monocyte populations” and the “sensorimotor deficits, modified NSS” value ([2]; 10 mg/kg i.p. prior to TBI) was “prevented”. The “Rotarod latency to fall” value ([2]; 10 mg/kg i.p. prior to TBI, 2, 5, 7 DPI) was “comparable to uninjured shams at all time points post-injury”, the “levels of select inflammatory cytokines” value ([2]; 2LS80Mel-treated vs saline-treated) was “no significant differences” and the microglial morphology ([2]; 2LS80Mel-treated vs saline-treated, 15 DPI) was “no significant differences”. The “behavioral, neurological, and motor skill deficits” value ([2]; overall, FIG. 8) was “attenuated behavioral, neurological, and motor skill deficits”, the EC50 [3] was 9.4 nM and the Emax [3] was 86%. It also gave an EC50 [4] of 0.57 nM and an Emax [4] of 99%.
With `CC[C@H](C)[C@H](NC(=O)CNC(=O)[C@H](CC(=O)O)NC(=O)[C@H](CO)NC(=O)[C@@H](N)Cc1cnc[nH]1)C(=O)N[C@@H](Cc1ccccc1)C(=O)N[C@H](C(=O)N[C@@H](CC(=O)O)C(=O)N[C@@H](CO)C(=O)N[C@@H](Cc1ccc(O)cc1)C(=O)N[C@@H](CO)C(=O)N[C@@H](CCCNC(=N)N)C(=O)N[C@@H](Cc1ccc(O)cc1)C(=O)N[C@@H](CCCNC(=N)N)C(=O)N[C@@H](CCCCN)C(=O)N[C@@H](CCC(N)=O)C(=O)N[C@@H](CCSC)C(=O)N[C@@H](C)C(=O)N[C@H](C(=O)N[C@@H](CCCCN)C(=O)N[C@@H](CCCCN)C(=O)N[C@@H](Cc1ccc(O)cc1)C(=O)N[C@@H](CC(C)C)C(=O)N[C@@H](C)C(=O)N[C@@H](C)C(=O)N[C@H](C(=O)N[C@@H](CC(C)C)C(N)=O)C(C)C)C(C)C)[C@@H](C)O` [PACAP1-27, PACAP-27, reference compound] the “degradation in mouse serum” value [5] was “degraded over 30 min”.
In the case of `CC[C@H](C)[C@H](NC(=O)CNC(=O)[C@H](CC(=O)O)NC(=O)[C@H](CO)NC(=O)[C@@H](N)Cc1c[nH]cn1)C(=O)N[C@@H](Cc1ccccc1)C(=O)N[C@H](C(=O)N[C@@H](CC(=O)O)C(=O)N[C@@H](CO)C(=O)N[C@@H](Cc1ccc(O)cc1)C(=O)N[C@@H](CO)C(=O)N[C@@H](CCCNC(=N)N)C(=O)N[C@@H](Cc1ccc(O)cc1)C(=O)N[C@@H](CCCNC(=N)N)C(=O)N[C@@H](CCCCN)C(=O)N[C@@H](CCC(N)=O)C(=O)N[C@@H](CCSC)C(=O)N[C@@H](C)C(=O)N[C@H](C(=O)N[C@@H](CCCCN)C(=O)N[C@@H](CCCCN)C(=O)N[C@@H](Cc1ccc(O)cc1)C(=O)N[C@@H](CC(C)C)C(=O)N[C@@H](C)C(=O)N[C@@H](C)C(=O)N[C@H](C(=O)N[C@@H](CC(C)C)C(=O)N[C@@H](CO[C@@H]1O[C@H](CO)[C@@H](O)[C@H](O)[C@H]1O)C(N)=O)C(C)C)C(C)C)[C@@H](C)O` [PACAP1-27-S-G], the “mouse serum t1/2 in vitro” value ([5]; compared to native / non-glycosylated peptide) is reported as “significant increase” and the “degradation in mouse serum” value [5] is reported as “degraded over 30 min”.
